Source: patent publication US20080051457A1, “Optically Active Phthalamide Derivative, Agricultural or Horticultural Insecticide, and Method of Using the Same” (priority 2004, published 2008)

How the values were obtained:
[1] = tested on: Common Cutworm (Spodoptera litura); test: Test Example 2: insecticidal activity on common cutworm, cabbage leaf disc dip; type: in vivo; conditions: foliar, 192 h, second instar larvae, eight days after the inoculation, read-out: insecticidal activity judged from mortality
Description: (§1) A cabbage leaf disc (variety: Shikidori) cut into 7 cm-diameter was dipped for about 30 seconds into a chemical solution prepared by diluting a preparation containing each compound listed in Tables 1 and 2 as an active ingredient to adjust the concentration to 50 ppm. After dried, it was put into a plastic Petri dish with a diameter of 9 cm and inoculated with ten of the second instar larvae of common cutworm. Eight days after the inoculation, the dead and alive larvae were counted. The mortality was calculated and the insecticidal activity was judged in the same manner as in Test Example 1. The test was carried out with three replications under the condition of 25° C., 50-60% RH and 16L-8D photoperiod.

[2] = tested on: Diamond Back Moth (Plutella xylostella); test: Test Example 1: insecticidal activity on diamond back moth, cabbage leaf disc dip; type: in vivo; conditions: foliar, 192 h, third instar larvae, eight days after the inoculation, read-out: insecticidal activity judged from mortality
Description: as §1, with “the third” for “the second”, “of diamond back moths.” for “of common cutworm.”, “calculated according to the following equation” for “calculated”, “judged according to” for “judged in”, “the criterion shown below.” for “the same manner as in Test Example 1.”, “photoperiod. [formula]” for “photoperiod.”

Row | Compound | mortality at 50 ppm [1] [%] | mortality at 50 ppm [2] [%]
1 | Cc1cc(OC(F)(F)F)ccc1NC(=O)c1cccc(I)c1C(=O)N[C@@H](C)CS(C)(=O)=O [Compound 1-44, (S)-3-iodo-N′-(2-methyl-4-trifluoromethoxyphenyl)-N^2— (1-methyl-2-methylsulfonylethyl)phthalamide] | 100 | 100
2 | CSC[C@H](C)NC(=O)c1c(I)cccc1C(=O)Nc1ccc(OC(F)(F)F)cc1C [Compound 1-42, (S)-3-iodo-N^1-(2-methyl-4-trifluoromethoxyphenyl)-N^2-(1-methyl-2-methylthioethyl)phthalamide] | 100 | 100
